Entries after “also recorded” stand apart in the source; their conditions may differ. Read-outs that look alike come from different tables or passages of the source.
Legend:
MERS-CoV (EMC strain) = experiment: microbe, parasite or virus in culture; assay type: cell-based
[1] = system: measles virus (CC strain); experiment: microbe, parasite or virus in culture; assay type: cell-based
[2] = system: tacaribe virus (TRVL11573 strain); experiment: microbe, parasite or virus in culture; assay type: cell-based; settings: read-out: Tacaribe virus EC50 TRVL 11573 strain
[3] = system: influenza A (H1N1) virus (California/07/2009 strain); experiment: microbe, parasite or virus in culture; assay type: cell-based
Influenza A (H3N2) = experiment: microbe, parasite or virus in culture; assay type: cell-based; settings: H3N2, MDCK, read-out: EC50 Influenza A (H3N2)
Influenza A (H5N1) = experiment: microbe, parasite or virus in culture; assay type: cell-based; settings: H5N1, MDCK, read-out: EC50 Influenza A (H5N1)
Influenza B = experiment: microbe, parasite or virus in culture; assay type: cell-based; settings: MDCK, read-out: EC50 Influenza B
[4] = system: dengue virus 2 (New Guinea C strain); experiment: microbe, parasite or virus in culture; assay type: cell-based
[5] = system: enterovirus-71 (Tainan/4643/98 strain); experiment: organism not typed; assay type: cell-based; settings: Vero 76, read-out: EC50 enterovirus-71
Vero cells = settings: African green monkey
Huh7 cells = settings: read-out: Yellow fever virus CC50 Huh7, YFV screen
MDCK cells = settings: dog
in vitro [6] = settings: African green monkey
in vitro [7] = settings: African green monkey, Tacaribe virus CC50 Vero
in vitro [8] = settings: dog, CC50 MDCK

## CCc1ncnc2c1c(F)cn2[C@@H]1O[C@H](CO)[C@@H](O)[C@H]1O [3.1r, 6-Ethyl-7-Fluoro-9-β-D-ribofuranosyl-7-deazapurine]
MERS-CoV (EMC strain)
  activity against MERS-CoV in words: moderately active with low selectivity index; also recorded: low micromolar to submicromolar activity
MERS-CoV (EMC strain); Middle East respiratory syndrome-related coronavirus, Vero 76, read-out: MERS-CoV EC50 EMC strain
  EC50: 3 µM
MERS-CoV (EMC strain); read-out: MERS-CoV EC50 EMC strain
  EC50: 2.5 µM
[1]; Measles morbillivirus, Vero 76, read-out: Measles EC50 CC strain
  EC50: 7.7 µM
[1]; read-out: Measles EC50 CC strain
  EC50: 9.6 µM
[2]; Mammarenavirus tacaribeense, Vero
  EC50: > 63 µM
[2]
  EC50: 43 µM
[3]; Influenza A virus, H1N1, MDCK, read-out: EC50 California/07/2009 strain
  EC50: 0.34 µM
[3]; Influenza A virus, H1N1, MDCK, read-out: EC50 Influenza A (H1N1)
  EC50: 0.34 µM
[3]; read-out: EC50 California/07/2009 strain
  EC50: 0.32 µM
Influenza A (H3N2)
  EC50: < 0.1 µM
Influenza A (H5N1)
  EC50: < 0.1 µM
Influenza B
  EC50: < 0.1 µM
[4]
  activity against dengue virus 2 in words: low micromolar to submicromolar activity
[5]
  EC50: > 100 µM
Vero 76 cells; African green monkey
  CC50: 42 µM
Vero 76 cells; read-out: MERS-CoV CC50 Vero 76, Neutral Red, MERS-CoV screen
  CC50: 46 µM
Vero 76 cells; read-out: MERS-CoV CC50 Vero 76, Visual, MERS-CoV screen
  CC50: 100 µM
Vero cells
  CC50: 59 µM
Huh7 cells; Neutral Red
  CC50: 1.9 µM
Huh7 cells; Visual
  CC50: > 100 µM
MDCK cells
  CC50: 43 µM
In vitro [6]; CC50
  CC50: > 100 µM
In vitro [6]; Measles CC50 Vero 76
  CC50: 32 µM
In vitro [7]
  CC50: 63 µM
In vitro [8]
  CC50: 32 µM
